Experimental data: US20240407315A1, “PLANT DISEASE […] METHOD, PLANT DISEASE […] DEVICE, AND PLANT DISEASE […] AGENT” (TOHOKU UNIVERSITY, priority 2021, published 2024)

Assays:
Arabidopsis thaliana = assay: Observation of leaf damage after gas exposure; format: in vivo; conditions: immediately after exposure and the next day
[1] = test system: Ca^2+ signals (calcium ion response); assay: Live GFP fluorescence imaging of Ca^2+ signals in GCaMP-expressing plants after gas exposure; format: in vivo, Arabidopsis thaliana; conditions: about 200 ppm or lower, 10 seconds
From the text: An experiment was implemented, in which a plant was exposed to dinitrogen pentoxide to confirm induction of Ca^2+ signals (calcium ion response) as information of injuries similar to insect damages or physical injuries, using the plant disease resistance inducing device 10 illustrated in FIG. 1.
First, Ca^2+ signals that had appeared by exposing the whole body of Arabidopsis thaliana to dinitrogen pentoxide were observed. In the experiment, the concentration of dinitrogen pentoxide in the gas for the exposure was set to about 200 ppm or lower, and the exposure time was set to 10 seconds. For comparison, Ca^2+ signals that had appeared by exposing the whole body of Arabidopsis thaliana to dry air were also observed under the same condition. FIG. 2 presents states of Arabidopsis thaliana before the exposure, and states of the Ca^2+ signals 60 seconds after the termination of the exposure.
Next, Ca^2+ signals that had appeared by exposing one leaf of Arabidopsis thaliana to dinitrogen pentoxide were observed. In the experiment, only one leaf of Arabidopsis thaliana (leaf surrounded by dotted line in FIG. 3(a)) was exposed to dinitrogen pentoxide. The concentration of dinitrogen pentoxide in the gas for the exposure was set to about 200 ppm or lower, and the exposure time was set to 10 seconds.

[2] = test system: cucumber mosaic virus (CMV) Macula lutea strain; assay: Suppression of viral growth: ELISA of virus coat protein in inoculated leaves; format: in vivo; conditions: Arabidopsis thaliana, 20 seconds once a day for 3 days, about 200 ppm or lower; inoculated 24 hours after last exposure; measured 2 days after inoculation
From the text: A plant was exposed to dinitrogen pentoxide using the plant disease resistance inducing device 10 illustrated in FIG. 1, and subjected to an experiment for examining an effect of suppressing viral growth. In the experiment, Arabidopsis thaliana at 5 week of seeding was exposed to dinitrogen pentoxide once a day for 3 days. In each exposure, Arabidopsis thaliana was exposed to dinitrogen pentoxide from a distance of 5 cm for 20 seconds. A concentration of dinitrogen pentoxide in the gas for the exposure was set to about 200 ppm or lower. Twenty-four hours after the last exposure, leaves that had fully developed were inoculated with a cucumber mosaic virus (CMV) Macula lutea strain by a friction inoculation method. Two days after the CMV inoculation, viral loads in the inoculated leaves were quantitatively measured by Enzyme-Linked Immuno Sorbent Assay (ELISA) method using an anti-CMV coat protein antibody.
For comparison, virus loads of Arabidopsis thaliana exposed to dry air and inoculated with CMV under the same condition, and Arabidopsis thaliana exposed to dry air and not inoculated with CMV (Mock) under the same condition were also quantitatively measured, and the results are presented in FIG. 6. For the experiment, six independent individuals were used, and the mean values and standard deviations of the six individuals are presented in FIG. 6. […]

[3] = test system: PDF1.2, ORA59, PAD3, CYP71A12, NIT2, and WRKY26; assay: RNA sequencing (RNA-seq) gene expression analysis after gas exposure; format: in vivo, Arabidopsis thaliana
Procedure: A plant was exposed to dinitrogen pentoxide using the plant disease resistance inducing device 10 illustrated in FIG. 1, and a gene expression was analyzed by RNA sequencing (RNA-seq) and quantitative real-time PCR (qRT-PCR). In the RNA-seq analysis, Arabidopsis thaliana at 5 week of seeding was exposed to dinitrogen pentoxide once a day for 3 days. In each exposure, Arabidopsis thaliana was exposed to dinitrogen pentoxide from a distance of 5 cm for 20 seconds. A concentration of dinitrogen pentoxide in the gas for the exposure was set to about 200 ppm or lower. Twenty-four hours after the last exposure, leaves that had fully developed were collected, from which the total RNA was extracted, followed by RNA-seq analysis. For comparison, as a control plot, a leaf exposed to dry air under the same condition was also subjected to the RNA-seq analysis.
Genes with expression levels not less than twice as high as that of the control plot, induced by the dinitrogen pentoxide exposure, and genes with reduced expression levels not more than half as high as that of the control plot were extracted. As a result, 1304 genes with twice or more of induced expression levels, and 1209 genes with expression levels reduced to half or less were found.
Based on the result of the RNA-seq, six genes: PDF1.2, ORA59, PAD3, CYP71A12, NIT2, and WRKY26, were selected as candidate marker genes for the dinitrogen pentoxide exposure. Herein, PDF1.2 is an antimicrobial peptide gene and is often used as a marker gene for jasmonic acid and ethylene. ORA59 is a gene related to regulation of PDF1.2 expression. PAD3 is a gene related to biosynthesis of an antimicrobial substance camalexin, which is synthesized and induced by jasmonic acid. CYP71A12 is a gene related to a tryptophan metabolism at an upstream of PAD3. NIT2 is a gene related to biosynthesis of auxin that is another plant hormone derived from tryptophan. WRKY26 is a gene which, as is known, functionally overlaps with a transcription factor WRKY33 that regulates jasmonic acid signals.

[4] = test system: PDF1.2, ORA59, PAD3, CYP71A12, NIT2, and WRKY26; assay: qRT-PCR time course of marker gene expression relative to ACT2 gene; format: in vivo, Arabidopsis thaliana; conditions: single 20 seconds exposure from 5 cm
Procedure: Subsequently, the expression of each of the selected genes was analyzed by qRT-PCR. In the qRT-PCR, Arabidopsis thaliana at 5 week of seeding was exposed to dinitrogen pentoxide from a distance of 5 cm for 20 seconds. The dinitrogen pentoxide exposure was conducted only once. The whole above-ground part was sampled 1, 3, 6, 12, 24, and 48 hours after the exposure, from which the total RNA was extracted and then subjected to qRT-PCR. Using ACT2 gene as a control for endogenous genes, an expression level of each gene was determined as a value relative to the ACT2 gene expression level (Relative expression to ACT2 gene).
For comparison, time-dependent changes in the expression levels of each gene in Arabidopsis thaliana exposed to dry air under the same condition were also determined, and the results are presented in FIG. 5. For the experiment, three independent individuals were used, and the mean values and standard deviations of the three individuals are presented in FIG. 5. The same experiment was conducted twice independently, and the same results were obtained.

[5] = 20 seconds once a day for 3 days, about 200 ppm or lower, leaves 24 hours after last exposure

SMILES	state of leaves after exposure (Arabidopsis thaliana)	time to activation of the Ca^2+ signals in the leaf directly exposed ([1]; one leaf exposed)	spread of Ca^2+ signals after exposure of one leaf ([1]; one leaf exposed, observed up to 6 minutes)	generation of Ca^2+ signals over the plant body ([1]; whole body exposed)	Ca^2+ signals after whole-body exposure ([1]; whole body exposed, observed 60 seconds after exposure, dry air gave no signals)	CMV growth (accumulation of virus coat protein) compared to dry air exposure [2]	gene ontology analysis result ([3]; 20 seconds once a day for 3 days, about 200 ppm or lower)	number of genes with expression levels reduced to half or less vs control plot [3, 5] [genes]	number of genes with twice or more of induced expression levels vs control plot [3, 5] [genes]	At-N2O5-_TPM ([3]; gene CYP71A12, control 0.000000) [TPM]	At-N2O5-_TPM ([3]; gene NIT2, control 0.000000) [TPM]	At-N2O5-_TPM ([3]; gene ORA59, control 0.074135) [TPM]	At-N2O5-_TPM ([3]; gene PAD3, control 0.312642) [TPM]	At-N2O5-_TPM ([3]; gene WRKY26, control 0.035706) [TPM]	time after exposure from which ODR59 expression was induced [4] [h]	time after exposure from which PDF1.2 expression was induced [4] [h]	time of peak of transiently induced NIT2 expression [4] [h]	time until which high ODR59 expression level was maintained [4] [h]	time until which high PDF1.2 expression level was maintained [4]
O=[O+][O-] [ozone, reference compound]	curl up immediately after the ozone exposure and wither the next day																		
O=[N+]([O-])O[N+](=O)[O-] [dinitrogen pentoxide]	not to curl up but to grow without withering	about 20 seconds	spread to all leaves in the whole body through sieve tubes	slowly generated over the whole body	Ca^2+ signals were observed	significantly suppressed	jasmonic acid signals were activated	1209	1304	0.797	1.917	2.341	1.293	0.7565	1	6	12	48	at least 48 hours
